These are literature values, as cited in patent US20150216948A1, “CYTOCHROME P450 SUICIDE GENE SYSTEM” (priority 2012, published 2015).

The conditions of the data set: 5-day infusion regimens, patients with lung and liver cancers.

With `CC(O)CCC(=O)c1ccoc1` (stereo not shown) [4-IPO, 1-[3-furyl]-4-hydroxypentanone], the “serum concentrations, highly efficient for killing human P427 mutant CYP4B1 transgenic human cells within 72 h” value was “up to 90 μM”.
